# Measured values published in US12285399B2, “Composition comprising bornyl acetate or pharmaceutically acceptable salt thereof as active ingredient for prevention or treatment of stress-related disorder” (UNIVERSITY-INDUSTRY COOPERATION GROUP OF KYUNG HEE …, priority 2019, dated 2025).
# What was measured:
# Format in all cases: in vivo, C57BL/6NTac mice
# [1] = Body weight change in chronic restrained stress (CRS) depression model; conditions: CRS+BA group, oral, 14 days of restrained stress, 14th day
# Protocol: In order to confirm the antidepressant efficacy of bornyl acetate on the animal model of stress depression, an animal model of depression induced by chronic restrained stress (CRS) was prepared. Specifically, the animal model, 8-week-old male C57BL/6NTac mice after birth (Narabiotechnology, Korea; weight 22-24 g) had been stabilized for 1 week. A 50 ml conical tube (SPL Life sciences, Pocheon, Korea) was punched to make a hole, thereby making a restraint frame. The mice were put in the frame and restrained for 2 hours every day for 14 days. After restraint, the mice were allowed to freely ingest water and food in the home cage. Bornyl acetate (25, 50 and 100 mg/kg) of the present invention was dissolved in 0.1 M PBS, and the mixture was orally administered 1 hour before inducing restrained stress every day. Bornyl acetate was administered in a dose per individual of 100 μl. Specifically, the mice were weighed during or after applying restrained stress for 2 hours per day for 14 days, followed by a tail suspension test and forced swimming test were performed, and serum stress hormone (corticosterone) levels were measured (FIGS. 1A and 1B).
# [2] = test system: corticosterone; test: Serum stress hormone (corticosterone) ELISA in CRS model; conditions: CRS+BA group, 14 days
# Protocol: In order to confirm the antidepressant efficacy of bornyl acetate on the animal model of stress depression, an animal model of depression induced by chronic restrained stress (CRS) was prepared. Specifically, the animal model, 8-week-old male C57BL/6NTac mice after birth (Narabiotechnology, Korea; weight 22-24 g) had been stabilized for 1 week. A 50 ml conical tube (SPL Life sciences, Pocheon, Korea) was punched to make a hole, thereby making a restraint frame. The mice were put in the frame and restrained for 2 hours every day for 14 days. After restraint, the mice were allowed to freely ingest water and food in the home cage. Bornyl acetate (25, 50 and 100 mg/kg) was orally administered 1 hour before inducing restrained stress every day. 14 days later, the mice were anesthetized, and the blood was collected. The blood was centrifuged at 5,000 rpm for 15 minutes to separate serum. In order to confirm the level of corticosterone, a stress hormone, in serum, an enzyme-linked immunosorbent assay (ELISA) kit (Enzo life sciences, Farmingdale, NY, USA) was used for analysis.
# [3] = test system: c-Fos protein; test: Western blot of c-Fos protein in brain (hippocampus and amygdala) of CRS model; conditions: CRS+BA group
# Protocol: (§1) In order to confirm the antidepressant efficacy of bornyl acetate on the animal model of stress depression, an animal model of depression induced by chronic restrained stress (CRS) was prepared. Specifically, the animal model, 8-week-old male C57BL/6NTac mice after birth (Narabiotechnology, Korea; weight 22-24 g) had been stabilized for 1 week. A 50 ml conical tube (SPL Life sciences, Pocheon, Korea) was punched to make a hole, thereby making a restraint frame. The mice were put in the frame and restrained for 2 hours every day for 14 days. After restraint, the mice were allowed to freely ingest water and food in the home cage. The hippocampus and amygdala of the brain were excised. They were added to 200 μl of a protein lysis buffer (10 mM Tris, 0.5 mM EDTA, 0.25 M sucrose), and proteins were isolated using a grinder. The isolated protein was quantified by the Bradford method (Bio-rad, USA) using bovine serum albumin (BSA, Sigma, USA), and then 25 μg of the protein was separated by 10% sodium dodecyl sulfate-polyacrylamide gel electrophoresis (SDS-PAGE) and transferred to polyvinylidene difluoride (PVDF) membrane (Gendepot, UK). PVDF membranes were blocked in 5% skimmed milk (BD, USA) for 1 hour. […] Identification and quantitative analysis of proteins were analyzed using an imaging device ChemiDoc XRS+ (Bio-Rad). […]
# [4] = test system: COX-2 protein; test: Western blot of COX-2 protein in brain (hippocampus and amygdala) of CRS model; conditions: CRS+BA group
# Protocol: as §1
structure (smiles),measurement,setting,value
"CC(=O)OC1CC2CCC1(C)C2(C)C (stereo not shown) [BA, bornyl acetate]",body weight change,[1],no significant increase or decrease
same,level of stress hormone (corticosterone) in serum,[2]; 50 mg/kg oral,2869.8 pg/mL
same,level of stress hormone (corticosterone) in serum,[2]; 100 mg/kg oral,2202.5 pg/mL
same,protein expression of c-Fos (CRS-induced increase),[3]; amygdala,significantly inhibited
same,protein expression of c-Fos (CRS-induced increase),[3]; hippocampus,significantly inhibited
same,protein expression of COX-2 (CRS-induced increase),[4]; amygdala,significantly inhibited
same,protein expression of COX-2 (CRS-induced increase),[4]; hippocampus,significantly inhibited
